The test system of one experiment is APESV. Description: greenhouse pre-emergence herbicidal test. The class given is in vivo, Apera spica-venti. Conditions: pre-emergence method, scale from 0 to 100. The source says: (§1) The seeds of the test plants were sown separately for each species. For the pre-emergence treatment, the active ingredients, which had been suspended or emulsified in water, were applied directly after sowing by means of finely distributing nozzles. The containers were irrigated gently to promote germination and growth and subsequently covered with transparent plastic hoods until the plants had rooted. This cover caused uniform germination of the test plants, unless this had been impaired by the active ingredients. Depending on the species, the plants were kept at 10-25° C. or 20-35° C., respectively. The test period extended over 2 to 4 weeks. During this time, the plants were tended, and their response to the individual treatments was evaluated. Evaluation was carried out using a scale from 0 to 100. 100 means no emergence of the plants, or complete destruction of at least the aerial moieties, and 0 means no damage, or normal course of growth. […] The plants used in the greenhouse experiments were of the following species: [table]

In the next experiment the test system is AVEFA. Description: greenhouse post-emergence herbicidal test. The format is in vivo, Avena fatua. Conditions: post-emergence method, scale from 0 to 100. An excerpt:
(§2) The seeds of the test plants were sown separately for each species. For the post-emergence treatment, the test plants were first grown to a height of 3 to 15 cm, depending on the plant habit, and only then treated with the active ingredients which had been suspended or emulsified in water. For this purpose, the test plants were either sown directly and grown in the same containers, or they were first grown separately as seedlings and transplanted into the test containers a few days prior to treatment. Depending on the species, the plants were kept at 10-25° C. or 20-35° C., respectively. The test period extended over 2 to 4 weeks. During this time, the plants were tended, and their response to the individual treatments was evaluated. Evaluation was carried out using a scale from 0 to 100. 100 means no emergence of the plants, or complete destruction of at least the aerial moieties, and 0 means no damage, or normal course of growth. […] The plants used in the greenhouse experiments were of the following species: [table]

Another experiment relates to ALOMY. The experiment in a line: greenhouse post-emergence herbicidal test. The format is in vivo, Alopercurus myosuroides. The conditions noted are these: post-emergence method, scale from 0 to 100.
Excerpt: as §2

Experiment [1] deals with ECHCG. Description: greenhouse pre-emergence herbicidal test. The class given is in vivo, Echinocloa crus-galli. The conditions noted are these: pre-emergence method, scale from 0 to 100.
Excerpt: as §1

The subject of experiment [2] is ECHCG. Description: greenhouse post-emergence herbicidal test. Conditions: post-emergence method, scale from 0 to 100. The format is in vivo, Echinocloa crus-galli.
Excerpt: as §2

Turning to `COC(=O)c1nc(C2CC2)ncc1-c1c(F)cc(Cl)cc1Cl` [example 194], the “herbicidal activity against APESV” value with APESV (application rate 500 g/ha) was “good (A good herbicidal activity is given at values of at least 70)”. For the same compound, the “herbicidal activity against AVEFA” value in the experiment with AVEFA (application rate 500 g/ha) is recorded as “very good (a very good herbicidal activity is given at values of at least 85)”. Further, in the experiment on ALOMY (application rate 500 g/ha), the “herbicidal activity against ALOMY” value was “good (A good herbicidal activity is given at values of at least 70)”.
Turning to `O=C(OC1CC1)c1nc(C2CC2)ncc1-c1ccccc1Cl` [example 262], the “herbicidal activity against ECHCG” value with ECHCG [1] (application rate 500 g/ha) is on record as “very good (a very good herbicidal activity is given at values of at least 85)”. Further, the “herbicidal activity against APESV” value with APESV (application rate 500 g/ha) is recorded as “very good (a very good herbicidal activity is given at values of at least 85)”. The “herbicidal activity against AVEFA” value in the experiment on AVEFA (application rate 500 g/ha) was “good (A good herbicidal activity is given at values of at least 70)”.
Consider `N#Cc1ccccc1-c1cnc(C2CC2)nc1C(=O)O` [example 154], for which the “herbicidal activity against ECHCG” value is listed as “very good (a very good herbicidal activity is given at values of at least 85)” with ECHCG [1] (application rate 500 g/ha) and “good (A good herbicidal activity is given at values of at least 70)” in the experiment on ECHCG [2] (application rate 500 g/ha). Moreover, in the experiment with APESV (application rate 500 g/ha), the “herbicidal activity against APESV” value was “very good (a very good herbicidal activity is given at values of at least 85)”. Also, the “herbicidal activity against ALOMY” value with ALOMY (application rate 500 g/ha) is “very good (a very good herbicidal activity is given at values of at least 85)”.
For the compound `COC(=O)c1nc(C2CC2)ncc1-c1c(Cl)cccc1OC` [example 202], the results for the “herbicidal activity against ECHCG” value in the experiment with ECHCG [1] (application rate 1000 g/ha) and in the experiment with ECHCG [2] (application rate 1000 g/ha) were “very good (a very good herbicidal activity is given at values of at least 85)” and “good (A good herbicidal activity is given at values of at least 70)”, respectively. Further, the “herbicidal activity against APESV” value in the experiment on APESV (application rate 1000 g/ha) is “good (A good herbicidal activity is given at values of at least 70)”. Further, the “herbicidal activity against ALOMY” value with ALOMY (application rate 1000 g/ha) is “very good (a very good herbicidal activity is given at values of at least 85)”.
On to `Cc1c(F)cccc1-c1cnc(C2CC2)nc1C(=O)O` [example 170], for which the entries for the “herbicidal activity against ECHCG” value in the experiment on ECHCG [1] (application rate 1000 g/ha) and in the experiment on ECHCG [2] (application rate 1000 g/ha) were “very good (a very good herbicidal activity is given at values of at least 85)” and “good (A good herbicidal activity is given at values of at least 70)”, respectively. Besides, the “herbicidal activity against APESV” value with APESV (application rate 1000 g/ha) was “very good (a very good herbicidal activity is given at values of at least 85)”. The “herbicidal activity against ALOMY” value in the experiment with ALOMY (application rate 1000 g/ha) is listed as “very good (a very good herbicidal activity is given at values of at least 85)”.
Regarding `COc1ccc(CSC(=O)c2nc(C3CC3)ncc2-c2ccccc2Cl)cc1` [example 282], the “herbicidal activity against APESV” value in the experiment with APESV (application rate 500 g/ha) is listed as “very good (a very good herbicidal activity is given at values of at least 85)”. In the experiment with AVEFA (application rate 500 g/ha), the “herbicidal activity against AVEFA” value is recorded as “very good (a very good herbicidal activity is given at values of at least 85)”.
For `COC(=O)c1nc(C2CC2)ncc1-c1cc(OC)ccc1C` [example 229], the “herbicidal activity against ECHCG” value in the experiment on ECHCG [1] (application rate 500 g/ha) and in the experiment with ECHCG [2] (application rate 500 g/ha) was “very good (a very good herbicidal activity is given at values of at least 85)” in each case. Moreover, in the experiment with APESV (application rate 500 g/ha), the “herbicidal activity against APESV” value is given as “very good (a very good herbicidal activity is given at values of at least 85)”. Also, the “herbicidal activity against ALOMY” value in the experiment with ALOMY (application rate 500 g/ha) is recorded as “good (A good herbicidal activity is given at values of at least 70)”.
Turning to `COC(=O)c1nc(C2CC2)ncc1-c1ccc(C)cc1C` [example 231], the “herbicidal activity against ECHCG” value in the experiment on ECHCG [1] (application rate 1000 g/ha) is “very good (a very good herbicidal activity is given at values of at least 85)”; in the experiment with ECHCG [2] (application rate 1000 g/ha), “good (A good herbicidal activity is given at values of at least 70)”. Further, in the experiment on APESV (application rate 1000 g/ha), the “herbicidal activity against APESV” value is given as “very good (a very good herbicidal activity is given at values of at least 85)”. The “herbicidal activity against ALOMY” value in the experiment on ALOMY (application rate 1000 g/ha) is recorded as “good (A good herbicidal activity is given at values of at least 70)”.
Consider `COC(=O)c1nc(C(F)(F)F)ncc1-c1ccccc1Cl` [example 316], for which the “herbicidal activity against ECHCG” value in the experiment with ECHCG [1] (application rate 1000 g/ha) is “good (A good herbicidal activity is given at values of at least 70)”. The “herbicidal activity against APESV” value in the experiment on APESV (application rate 1000 g/ha) is given as “good (A good herbicidal activity is given at values of at least 70)”. In addition, in the experiment with AVEFA (application rate 1000 g/ha), the “herbicidal activity against AVEFA” value was “good (A good herbicidal activity is given at values of at least 70)”.
In the case of `CCSC(=O)c1nc(C2CC2)ncc1-c1ccccc1Cl` [example 291], the “herbicidal activity against ECHCG” value in the experiment on ECHCG [1] (application rate 500 g/ha) and in the experiment on ECHCG [2] (application rate 500 g/ha) was “very good (a very good herbicidal activity is given at values of at least 85)” throughout. For the same compound, the “herbicidal activity against APESV” value in the experiment with APESV (application rate 500 g/ha) was “very good (a very good herbicidal activity is given at values of at least 85)”. Further, in the experiment on AVEFA (application rate 500 g/ha), the “herbicidal activity against AVEFA” value is given as “very good (a very good herbicidal activity is given at values of at least 85)”.
With `COC(=O)c1nc(C2CC2)ncc1-c1ccccc1C#N` [example 217], the “herbicidal activity against ECHCG” value in the experiment with ECHCG [1] (application rate 500 g/ha) and in the experiment with ECHCG [2] (application rate 500 g/ha) was “very good (a very good herbicidal activity is given at values of at least 85)” throughout. The “herbicidal activity against APESV” value with APESV (application rate 500 g/ha) is listed as “very good (a very good herbicidal activity is given at values of at least 85)”. Further, the “herbicidal activity against ALOMY” value in the experiment on ALOMY (application rate 500 g/ha) is on record as “good (A good herbicidal activity is given at values of at least 70)”.
Consider `CC(C)OC(=O)CSC(=O)c1nc(C2CC2)ncc1-c1ccccc1Cl` [example 279], for which the “herbicidal activity against ECHCG” value in the experiment on ECHCG [1] (application rate 500 g/ha) is given as “very good (a very good herbicidal activity is given at values of at least 85)”. For the same compound, the “herbicidal activity against APESV” value with APESV (application rate 500 g/ha) is “very good (a very good herbicidal activity is given at values of at least 85)”. In the experiment with AVEFA (application rate 500 g/ha), the “herbicidal activity against AVEFA” value was “very good (a very good herbicidal activity is given at values of at least 85)”.
For the compound `COC(=O)c1nc(C2CC2)ncc1-c1cc(F)ccc1C#N` [example 218], the “herbicidal activity against ECHCG” value with ECHCG [1] (application rate 500 g/ha) and in the experiment on ECHCG [2] (application rate 500 g/ha) was “very good (a very good herbicidal activity is given at values of at least 85)” each time. In addition, in the experiment on APESV (application rate 500 g/ha), the “herbicidal activity against APESV” value is given as “very good (a very good herbicidal activity is given at values of at least 85)”. The “herbicidal activity against AVEFA” value in the experiment on AVEFA (application rate 500 g/ha) was “very good (a very good herbicidal activity is given at values of at least 85)”.
With `COC(=O)COC(=O)c1nc(C2CC2)ncc1-c1ccccc1Cl` [example 261], the “herbicidal activity against ECHCG” value in the experiment with ECHCG [1] (application rate 1000 g/ha) and in the experiment with ECHCG [2] (application rate 1000 g/ha) was “very good (a very good herbicidal activity is given at values of at least 85)” in each case. For the same compound, the “herbicidal activity against APESV” value with APESV (application rate 1000 g/ha) was “very good (a very good herbicidal activity is given at values of at least 85)”. The “herbicidal activity against ALOMY” value with ALOMY (application rate 1000 g/ha) was “very good (a very good herbicidal activity is given at values of at least 85)”.
Take `COC(=O)c1nc(C2CC2)ncc1-c1ccccc1SC(F)(F)F` [example 321]: in the experiment on AVEFA (application rate 1000 g/ha), the “herbicidal activity against AVEFA” value is “herbicidal activity”.
In the case of `COC(=O)c1nc(C2CC2)ncc1-c1ccccc1C(F)(F)F` [example 239], the “herbicidal activity against ECHCG” value in the experiment with ECHCG [1] (application rate 1000 g/ha) was “very good (a very good herbicidal activity is given at values of at least 85)”. Besides, in the experiment with APESV (application rate 1000 g/ha), the “herbicidal activity against APESV” value is reported as “very good (a very good herbicidal activity is given at values of at least 85)”. The “herbicidal activity against AVEFA” value with AVEFA (application rate 1000 g/ha) is “very good (a very good herbicidal activity is given at values of at least 85)”.

(Values after patent US10420341B2, “Herbicidal phenylpyrimidines” (BASF SE, priority 2015, dated 2019).)
